Measured values published in publication PMC11219871, “Epigenetic-based differentiation therapy for Acute Myeloid Leukemia” (Nature Communications, 2024).
Several values for one entry are separate records, joined by “and”; a condition that tells them apart may be missing. Identical values can stand only once.

Key:
HDAC11 = target: T1, HDAC11 (Homo sapiens, UniProt Q96DB2); experiment: HDAC11 Eurofins assay; type: biochemical
T1 sequence (Q96DB2 1-347): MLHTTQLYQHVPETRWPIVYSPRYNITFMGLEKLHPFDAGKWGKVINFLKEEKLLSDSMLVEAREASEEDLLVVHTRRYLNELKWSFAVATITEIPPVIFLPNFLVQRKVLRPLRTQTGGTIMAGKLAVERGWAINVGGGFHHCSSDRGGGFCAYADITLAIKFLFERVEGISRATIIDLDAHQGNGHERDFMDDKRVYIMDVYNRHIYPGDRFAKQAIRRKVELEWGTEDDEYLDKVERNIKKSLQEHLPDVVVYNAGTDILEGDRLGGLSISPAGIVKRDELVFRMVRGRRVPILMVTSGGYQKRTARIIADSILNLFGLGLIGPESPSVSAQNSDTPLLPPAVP

HL-60 = experiment: Cell-cycle analysis; type: cell-based, human; details: HL-60, treatment for 48 hours; replicates 1-3 (Figure 2F)
Description: (§1) […] Next, the cells were washed twice with PBS and resuspended in 0.2% Tween 20 in PBS and 0.5 mg/mL Rnase A (Ribonuclease A Type III-A from bovine pancreas, Cat No. R5125, Sigma), and then incubated for 30 min at 37 °C. Subsequently, the cells were stained with 25 μg/mL of propidium iodide (Cat No P4170, Sigma) and analyzed using a BD FACSCanto flow cytometer (Becton Dickinson, San Jose, CA, USA).

MOLM-13 = experiment: Cell-cycle analysis; type: cell-based, human; details: MOLM-13, 48 hours
Description: as §1

MV4-11 = experiment: Cell-cycle analysis; type: cell-based, human; details: MV4-11, 48 hours
Description: as §1

[1] = Plasma protein binding (equilibrium dialysis); type: in vitro ADME; details: pH 7.4, Human
Description: This study was conducted by Equilibrium Dialysis at Wuxi (http://www.wuxi.com/). HT Dialysis plate (Model HTD 96 b, Cat# 1006) and the dialysis membrane (molecular weight cutoff of 12–14 kDa, Cat# 1101) were purchased from HT Dialysis LLC (Gales Ferry, CT). Human plasma (BioIVT, # […]2P2N) and CD-1 mouse plasma (Beijing Vital River Laboratory Animal Technology Co., Ltd.) were thawed prior to experiments under running cold tap water and centrifuged at 3320 × g for 5 min to remove any clots, and the pH was checked. Only plasma from pH 7.0 to 8.0 was used. The dialysis membrane was pretreated according to the manufacturer’s instructions. Test compounds and warfarin (control) were assayed at a final concentration of 2 μM. Aliquots of 50 μL loading plasma (matrix) containing test or control compound in triplicate were transferred to Sample Collection Plates, respectively. The samples were matched with opposite blank buffer to obtain a final volume of 100 μL with a volume ratio of plasma (matrix) to dialysis buffer (1:1, v-v) in each well immediately. […] Concentrations of test compounds in the starting solution (before dialysis), the plasma side of the membrane, and the buffer side of the membrane were quantified by LC-MS/MS using a peak area ratio of analyte/internal standard. The fraction of unbound, bound, and recovery were calculated. […]

Cytotoxicity (LC50) = type: cell-based; details: human, THLE-2 cells (immortalized liver cell line, ATCC CRL-2706)
[2] = tested on: HL-60 cells in BALB/cA Rag2-/-γc-/- mice; experiment: Subcutaneous implant of in vitro pretreated cells, tumor volume; type: in vivo, mouse; parameters: key to Tumor volume: mm^3; V = D×d²/2 (D longest, d shortest diameter); details: for tumor growth: HL-60 cells pretreated in vitro 4 days, s.c.; for Tumor volume: HL-60 cells pretreated in vitro for 96 hours with 270 nM of CM-444 or 300 nM of CM-1758, injected subcutaneously, individual mice
Description: (§2) The human AML HL-60 and ML-2 cell lines were first pretreated in vitro daily with 270 and 260 nM of CM-444 or 300 and 210 nM of CM-1758, respectively, for 4 days. Prior to injection in mice, the cell differentiation induction by CM-444 and CM-1758 compounds was verified by measuring CD11b by flow cytometry, as described earlier. Then, 5 × 10^6 cells of cells, pretreated with CM-444, […], or vehicle (80% saline solution, 10% DMSO and 10% Tween 20) and diluted in 100 µL of saline solution, were implanted subcutaneously into the flank of female BALB/cA Rag2^−/−γc^−/− mice between 6 and 8 weeks of age (n = 8). Tumor size was analyzed every 2–3 days using the following method: […], where D and d corresponded to the longest and shortest diameter, respectively. The maximal tumor size/burden permitted by the Animal Care and Ethics Committee of the University of Navarra is 2000 mm^3. In some cases, this limit was reached on the last day of measurement and the mice were immediately euthanized.

[3] = tested on: ML-2 cells in BALB/cA Rag2-/-γc-/- mice; experiment: as above; type: in vivo, mouse; parameters: key to Tumor volume: mm^3; V = D×d²/2 (D longest, d shortest diameter); details: for tumor growth: ML-2 cells pretreated in vitro 4 days, s.c.; for Tumor volume: ML-2 cells pretreated in vitro for 96 hours, injected subcutaneously, individual mice (Fig 3A)
Description: as §2

SMILES	IC50 (HDAC11)	Cell number (%) G1 (HL-60)	Cell number (%) G2/M (HL-60)	Cell number (%) S (HL-60)	Cell number (%) G1 (MOLM-13)	Cell number (%) G2/M (MOLM-13)	Cell number (%) S (MOLM-13)	Cell number (%) G1 (MV4-11)	Cell number (%) G2/M (MV4-11)	Cell number (%) S (MV4-11)	fraction unbound at 4 h, 2 µM [1]	CC50 (Cytotoxicity (LC50))	tumor growth [2]	Tumor volume ([2]; day 0, in mm³)	Tumor volume ([2]; day 6)	Tumor volume ([2]; day 10, in mm³)	Tumor volume ([2]; day 13, in mm³)	tumor growth [3]	Tumor volume ([3]; day 0, in mm³)	Tumor volume ([3]; day 5, in mm³)	other results
COc1cc2nc(-c3cc(C)oc3C)cc(NCC3CCN(c4ncc(C(=O)NO)cn4)CC3)c2cc1OC [CM-1758, 2-[4-[[[2-(2,5-dimethyl-3-furyl)-6,7-dimethoxy-4-quinolyl]amino]methyl] -1-piperidyl]pyrimidine-5-carbohydroxamic acid]	0.15 µM	79.37% and 83.97% and 81.85%	6.97% and 12.93% and 5.78%	7.70% and 10.26% and 11.19%	94.79% and 97.36% and 97.43%	0.72% and 2.84% and 0.69%	2.37% and 1.95% and 1.85%	84.98% and 89.31% and 85.09%	8.40% and 10.00% and 4.67%	5.02% and 6.02% and 6.51%	0.01	0.779 µM	tumor growth was significantly slower	0	14.6888 and 24.2273 and 0 (4×) and 45.3546	433.416 and 271.101 and 281.205 and 32.0688 and 347.688 and 41.4834 and 382.357	1283.62 and 996.2 and 1210.81 and 1389.27 and 1272.73 and 1452.46 and 1063.15	tumor growth was significantly slower	0	0	Tumor volume ([2]; day 8): 103.082 and 62.3824 and 0 (2×) and 92.0448 and 53.4746 and 85.0123; Tumor volume ([3]; day 7, in mm³): 0; Tumor volume ([3]; day 9): 1.83 and 2.997 and 3.143 and 0 (4×) and 2.907; Tumor volume ([3]; day 12, in mm³): 16.9153 and 75.9412 and 211.561 and 0 and 9.058 and 82.0914 and 8.878 and 27.0425; Tumor volume ([3]; day 14, in mm³): 153.626 and 316.908 and 512.533 and 39.4763 and 33.8029 and 280.96 and 104.197 and 181.612; Tumor volume ([3]; day 16, in mm³): 325.692 and 736.294 and 1010.72 and 175.673 and 76.8746 and 574.138 and 425.416 and 598.506
COc1cc2nc(-c3ccc(C)o3)cc(NCC3CCN(c4ncc(C(=O)NO)cn4)CC3)c2cc1OC [CM-444, 2-[4-[[[6,7-dimethoxy-2-(5-methyl-2-furyl)-4-quinolyl]amino]methyl]-1-piperidyl]pyrimidine-5-carbohydroxamic acid]	0.14 µM	96.96% and 93.22% and 91.97%	4.36% and 1.34% and 3.53%	1.70% and 3.26% and 3.67%	98.91% and 98.32% and 98.59%	0.29% and 0.03% and 0.73%	1.06% and 0.95% and 1.11%	92.37% and 89.49% and 89.94%	2.21% and 0.68% and 3.29%	6.95% and 7.22% and 7.84%	0.011 ± 0.001	0.794 µM	tumor growth was significantly slower	0	0 (3×) and 15.188 and 103.406 and 17.053	208.487 and 290.654 and 187.094 and 596.573 and 195.686 and 84.5628 and 14.1488	1082.75 and 1016.65 and 1040.97 and 728.909 and 903.701 and 1085.29	tumor growth was significantly slower	0	0	Tumor volume ([2]; day 8, in mm³): 74.6826 and 76.624 and 60.9783 and 227.696 and 55.1928 and 10.6605 and 0; Tumor volume ([3]; day 7, in mm³): 0; Tumor volume ([3]; day 9): 0 (5×) and 2.103 and 2.907 and 1.967; Tumor volume ([3]; day 12): 0 (3×) and 15.5058 and 44.8074 and 14.292 and 43.7037 and 21.7346; Tumor volume ([3]; day 14, in mm³): 56.0772 and 79.1967 and 185.795 and 76.3392 and 203.44 and 147.179 and 18.725 and 23.4078; Tumor volume ([3]; day 16, in mm³): 136.524 and 233.533 and 382.095 and 345.104 and 527.015 and 508.257 and 54.687 and 46.2692
